Values after ≈ are worked out from the molar mass of the structure shown. Values joined by “and” are separate entries in the source; they are usually repeats but may differ in a detail not shown here. Equal values may be shown once. “Also recorded” adds a separate entry of the source.
Tests used:
[1] = Mechanical stability (manual grinding, XRPD); assay type: physicochemical
Procedure: Appropriate amount of Form X was manually ground by pestle and mortar for about 2 minutes and 5 minutes, and then analyzed by XRPD.

[2] = Solubility in bio-relevant media (SGF, FaSSIF, FeSSIF) and water; assay type: physicochemical; settings: for Solubility: 37° C.
Procedure: The solubility of Form X was measured in bio-relevant media (SGF, FaSSIF and FeSSIF) and water at 37° C. with 800 rpm for up to 24 hours. About 15 mg of Form X was weighed into sample vials and then 3 mL of three bio-relevant media and water were added to make suspensions, respectively. At 0.5, 2 and 24 hours, about 1 mL of each suspension was filtered, the filtrates were analyzed by HPLC and pH, and the filter cakes were analyzed by XRPD. Duplicate samples were prepared. […] A little higher solubility in FeSSIF was possibly due to the effect of bile salt.

[3] = pH solubility profile; assay type: physicochemical
Procedure: Different pH buffers (pH 1.0, 3.0, 5.0, 6.8 and 9.0) were prepared by method in Table 20. Then 10 mg of Form X was added into 2 mL of different buffers (pH=1.0, 3.0, 5.0, 6.8 and 9.0) to make suspensions. The suspensions were kept shaking with a speed of 1000 rpm at 25° C. for 4 and 24 hours. At each point, the suspensions were centrifuged, and the supernatant was inspected by HPLC/pH, and the wet cakes were analyzed by XRPD. Duplicate samples were prepared.

[4] = Slurry conversion of Form I and Form X in solvents (XRPD result); assay type: physicochemical; settings: for XRPD Result-Day 3: slurry at 80° C.
Procedure: Appropriate amount of Form I was added into different solvents to make suspensions, which were kept stirring at RT and 50° C. for 3 and 7 days, and at 80° C. for 3 days. Solid samples were collected by centrifugation and analyzed by XRPD. Forms I-IV, VII and VIII were obtained by slurry experiments of Form I.
Appropriate amount of Form X was added into different solvents to make suspensions, which were kept stirring at RT and 50° C. for 3 and 7 days, and at 80° C. for 3 days. Solid samples were collected by centrifugation and analyzed by XRPD.

[5] = Hygroscopicity by DVS; assay type: physicochemical
Procedure: DVS was performed on Form X, to evaluate its hygroscopicity and physical stability under different humidity.
Moisture sorption/desorption data were collected on a DVS instrument. Appropriate amount of sample was placed into a tared sample chamber and automatically weighed. The sample was analyzed with the setting parameters in the table below.

[6] = Slurry competition experiments (thermodynamic stability relationship); assay type: physicochemical; settings: RT, also in pure water
Procedure: Slurry competition experiments were carried out between anhydrous and hydrates, to establish stability relationships. Appropriate amount of Form I was suspended in different solvents for pre-saturation at RT. Then the filtrate was added into equal amount of different forms, and the mixture was kept stirring at RT for certain time before XRPD tests.

[7] = Solubility estimation at RT by visual observation in selected solvent systems
Procedure: The solubility of compound 1 Form I and Form X was estimated at RT by visual observation in selected solvent systems. Approximately 5 mg solids were weighed into 8 mL glass vial, and then solvent was added stepwise until solids were dissolved completely or a total of solvent volume reached 5 mL.

[8] = Solid-state stability (HPLC purity and XRPD); assay type: physicochemical; settings: for solid-state stability (form change, purity): 7 days
Procedure: Solid-state stability of Form X was conducted at 60° C. (capped) and 40° C./75% RH (open) for 7 days. The stability sample was dissolved in diluent to prepare solution at ˜1 mg/mL for HPLC purity analysis. Solid samples were analyzed by XRPD to check the crystal form.

[9] = slurry at 50° C., Acetone/water (1/3)
[10] = slurry at 50° C., MeOH/Water (1/4)
[11] = slurry at RT, Acetone/water (1/3)

## [2H]C([2H])(Oc1cc(C)n(-c2c(C)cnc(-n3ccc(C(C)(C)O)n3)c2F)c(=O)c1Cl)c1ncc(F)cc1F [Form X]
[1]; manual grinding
  Crystallinity after manual grinding: with slight crystallinity decrease after
[1]; manually ground about 2 and 5 minutes
  crystal form after grinding: remained unchanged with slight crystallinity decrease
[2]; 0.5/2/24 h, all media (SGF, FaSSIF, FeSSIF, water)
  XRPD of filter cake after solubility test: ^a Form X remained unchanged during solubility test in all media
[2]; FaSSIF, 0.5 h
  Solubility: 69 µg/mL (≈ 132 µM)
[2]; FaSSIF, 2 h
  Solubility: 70 µg/mL (≈ 134 µM)
[2]; FaSSIF, 24 h
  Solubility: 74 µg/mL (≈ 142 µM)
[2]; FeSSIF, 0.5 h
  Solubility: 97 µg/mL (≈ 186 µM)
[2]; FeSSIF, 2 h
  Solubility: 97 µg/mL (≈ 186 µM)
[2]; FeSSIF, 24 h
  Solubility: 124 µg/mL (≈ 238 µM)
[2]; SGF, 0.5 h
  Solubility: 74 µg/mL (≈ 142 µM)
[2]; SGF, 2 h
  Solubility: 70 µg/mL (≈ 134 µM)
[2]; SGF, 24 h
  Solubility: 66 µg/mL (≈ 126 µM)
[2]; Water, 0.5 h
  Solubility: 74 µg/mL (≈ 142 µM)
[2]; Water, 2 h
  Solubility: 74 µg/mL (≈ 142 µM)
[2]; Water, 24 h
  Solubility: 70 µg/mL (≈ 134 µM)
[2]; all media, XRPD of filter cake
  crystal form after solubility test: remained unchanged
[3]; 4/24 h, all pH buffers
  XRPD of wet cake after pH solubility test: Unchanged
[3]; XRPD of wet cake
  crystal form after pH solubility test: remained unchanged
[3]; pH 1.0, 25° C., 4 h
  Solubility (1T/2T, mg/mL): 0.074 mg/mL (≈ 142 µM)
[3]; pH 1.0, 25° C., 24 h
  Solubility (1T/2T, mg/mL): 0.075 mg/mL (≈ 144 µM)
[3]; pH 1.0-9.0 buffers, 25° C.
  pH-dependence of solubility: no pH-dependence
[3]; pH 3.0 buffer, 25° C., 4 h
  Solubility (1T/2T, mg/mL): 0.060 mg/mL (≈ 115 µM)
[3]; pH 3.0 buffer, 25° C., 24 h
  Solubility (1T/2T, mg/mL): 0.073 mg/mL (≈ 140 µM)
[3]; pH 5.0 buffer, 25° C., 4 h
  Solubility (1T/2T, mg/mL): 0.061 mg/mL (≈ 117 µM)
[3]; pH 5.0 buffer, 25° C., 24 h
  Solubility (1T/2T, mg/mL): 0.060 mg/mL (≈ 115 µM)
[3]; pH 6.8 buffer, 25° C., 4 h
  Solubility (1T/2T, mg/mL): 0.060 mg/mL (≈ 115 µM)
[3]; pH 6.8 buffer, 25° C., 24 h
  Solubility (1T/2T, mg/mL): 0.060 mg/mL (≈ 115 µM)
[3]; pH 9.0 buffer, 25° C., 4 h
  Solubility (1T/2T, mg/mL): 0.060 mg/mL (≈ 115 µM)
[3]; pH 9.0 buffer, 25° C., 24 h
  Solubility (1T/2T, mg/mL): 0.062 mg/mL (≈ 119 µM)
[4]; [9]
  XRPD Result Day 3: Form X
  XRPD Result Day 7: Form X
[4]; slurry at 50° C., IPA
  XRPD Result Day 3: Form X
  XRPD Result Day 7: Form X
[4]; slurry at 50° C., IPE
  XRPD Result Day 3: Form X
  XRPD Result Day 7: Form X
[4]; slurry at 50° C., MTBE
  XRPD Result Day 3: Form X
  XRPD Result Day 7: Form III
[4]; [10]
  XRPD Result Day 3: Form X
  XRPD Result Day 7: Form X
[4]; slurry at 50° C., Toluene
  XRPD Result Day 3: Form X
  XRPD Result Day 7: Form X
[4]; slurry at 50° C., Water
  XRPD Result Day 3: Form X
  XRPD Result Day 7: Form X
[4]; CYH
  XRPD Result-Day 3: Form X
[4]; Heptane
  XRPD Result-Day 3: Form X
[4]; IPA/Water (1/2)
  XRPD Result-Day 3: Clear
[4]; IPA/Water (1/3)
  XRPD Result-Day 3: Form X
[4]; IPAc/Heptane (1/2)
  XRPD Result-Day 3: Form X
[4]; MeCYH
  XRPD Result-Day 3: Form X
[4]; Water
  XRPD Result-Day 3: Form X
[4]; [11]
  XRPD Result Day 3: Form X
  XRPD Result Day 7: Form X
[4]; slurry at RT, EtOH
  XRPD Result Day 3: Clear
  XRPD Result Day 7: Clear
[4]; slurry at RT, IPA
  XRPD Result Day 3: Form X
  XRPD Result Day 7: Form X
[4]; slurry at RT, IPAc
  XRPD Result Day 3: Form X
  XRPD Result Day 7: Form X
[4]; slurry at RT, IPE
  XRPD Result Day 3: Form X
  XRPD Result Day 7: Form X
[4]; slurry at RT, MIBK
  XRPD Result Day 3: Form X
  XRPD Result Day 7: Form X
[4]; slurry at RT, MTBE
  XRPD Result Day 3: Form III
  XRPD Result Day 7: Form III
[4]; slurry at RT, MeOH/water (1/4)
  XRPD Result Day 3: Form X
  XRPD Result Day 7: Form X
[4]; slurry at RT, Toluene
  XRPD Result Day 3: Form X
  XRPD Result Day 7: Form X
[4]; slurry at RT, Water
  XRPD Result Day 3: Form X
  XRPD Result Day 7: Form X
[5]
  XRPD after DVS: No change
[5]; DVS
  hygroscopicity: non-hygroscopic
[5]; DVS, 80% RH
  water uptake: 0.11%
[5]; DVS, 90% RH
  water uptake: 0.16%
[5]; after DVS test
  crystal form after DVS test: remained unchanged
[5]; at 80% RH
  DVS Wt. Gain %: 0.11%
[5]; at 90% RH
  DVS Wt. Gain %: 0.16%
[5]; classification in words
  Hygroscopicity (DVS): non-hygroscopic
[6]
  thermodynamic stability in slurry competition of anhydrous forms and hydrates: thermodynamically more stable even in pure water at room temperature; also recorded: thermodynamically stable even in pure water
[7]
  estimated solubility compared with Form I: decreased solubility in some solvents
[8]; 40° C./75% RH (open), 1 week
  Stability (physical): Physically stable at 40° C./75% RH (open)
  XRPD Result: Form X
[8]; 40° C./75% RH (open), 1 week, duplicate samples
  Purity (area %): 99.94 area % and 99.93 area %
[8]; 40° C./75% RH (open)
  solid-state stability (form change, purity): physically and chemically stable; also recorded: No form change or purity decrease
[8]; 60° C. (capped), 1 week
  XRPD Result: Form X
[8]; 60° C. (capped), 1 week, duplicate samples
  Purity (area %): 99.93 area % and 99.94 area %
[8]; 60° C. (capped)
  solid-state stability (form change, purity): physically and chemically stable; also recorded: No form change or purity decrease
[8]; 60° C., 1 week
  Stability (physical): Physically stable at 40° C./75% RH (open)
[8]; Initial
  Purity (area %): 99.94 area %
  XRPD Result: Form X
